Calls of active or inactive are those of the source. The rule behind the calls is not given here.
How the values were obtained:
Rattus norvegicus [1] = test: (§1) Anti-hyperuricemic activity against potassium oxonate-induced hyperuricemic Sprague-Dawley rat model assessed as urinary creatinine level at 1 mg/kg, po pre-administered via gavage twice daily for 5 times followed by potassium oxonate injection for 1 hrs prior to last dose and measured after 3 hrs; assay type: functional; details: time 123 hrs
Rattus norvegicus [2] = test: as §1, with “glomerular load of urate measured per body surface area of 0.0311 m2” for “urinary creatinine level”; assay type: functional; details: time 123 hrs
Rattus norvegicus [3] = test: (§2) Anti-hyperuricemic activity against potassium oxonate-induced hyperuricemic Sprague-Dawley rat model assessed as fractional excretion of urate at 4 mg/kg, po pre-administered via gavage twice daily for 5 times followed by potassium oxonate injection for 1 hrs prior to last dose and measured after 3 hrs relative to control; assay type: functional; details: time 123 hrs
Mus musculus [4] = test: Hypouricemic activity in potassium oxonate-induced hyperuricemic Kunming mouse model assessed as decrease in serum uric acid level at 4 mg/kg, IG by phosphotungstic acid method; assay type: functional, organism-based; details: time <= 6.0 hrs, TDE = time-dependent effect
Rattus norvegicus [5] = test: as §2, with “2” for “4”; assay type: functional; details: time 123 hrs
[6] = Acute toxicity in mouse assessed as behavioral changes at 50 g/Kg, IG measured for 14 days; details: in vivo, po, 50000 mg/kg, 336 h, time 14 day
[7] = Acute toxicity in mouse assessed as change in body weight at 50 g/Kg, IG measured for 14 days; details: in vivo, po, 50000 mg/kg, 336 h, time 14 day
Rattus norvegicus [8] = test: Anti-hyperuricemic activity against potassium oxonate-induced hyperuricemic Sprague-Dawley rat model assessed as serum creatinine level at 2 mg/kg, po pre-administered via gavage twice daily for 5 times followed by potassium oxonate injection for 1 hrs prior to last dose and measured after 3 hrs; assay type: functional; details: time 123 hrs
Rattus norvegicus [9] = test: as §2, with “increase in urinary” for “fractional excretion of”, “urate level” for “urate”; assay type: functional; details: time 123 hrs
Mus musculus [10] = test: Anti-hyperuricemic activity against uric acid-induced hyperuricemic Kunming mouse model assessed as decrease in URAT1 protein level in kidney at 2 to 8 mg/kg, pre-administered with uric acid for 3.5 days followed by compound administration via gavage twice a day for seven times by ELISA analysis; assay type: functional, organism-based; details: dose 2-8 mg/kg, time 7.0 day
Homo sapiens [11] = organism: Homo sapiens; test: Inhibition of uricase (unknown origin) using uric acid as substrate at 37.5 mg/L preincubated with compounds for 15 mins followed by uric acid addition
Homo sapiens [12] = organism: Homo sapiens; test: Inhibition of uricase (unknown origin) using uric acid as substrate at 112.5 mg/L preincubated with compounds for 15 mins followed by uric acid addition
Rattus norvegicus [13] = test: as §2, with “clearance” for “fractional excretion”, “urate measured per body surface area of 0.0311 m2” for “urate”, “1” for “4”, “hrs” for “hrs relative to control”; assay type: functional; details: time 123 hrs
Homo sapiens [14] = organism: Homo sapiens; test: Inhibition of uricase (unknown origin) using uric acid as substrate at 75 mg/L preincubated with compounds for 15 mins followed by uric acid addition
Rattus norvegicus [15] = test: Anti-hyperuricemic activity against potassium oxonate-induced hyperuricemic Sprague-Dawley rat model assessed as ratio of urinary urate to urinary creatinine at 4 mg/kg, po pre-administered via gavage twice daily for 5 times followed by potassium oxonate injection for 1 hrs prior to last dose and measured after 3 hrs; assay type: functional; details: time 123 hrs
Rattus norvegicus [16] = test: as §1, with “clearance of” for “urinary”, “measured per body surface area of 0.0311 m2” for “level”; assay type: functional; details: time 123 hrs
Rattus norvegicus [17] = test: (§3) Anti-hyperuricemic activity against potassium oxonate-induced hyperuricemic Sprague-Dawley rat model assessed as urinary urate level at 2 mg/kg, po pre-administered via gavage twice daily for 5 times followed by potassium oxonate injection for 1 hrs prior to last dose and measured after 3 hrs; assay type: functional; details: time 123 hrs
Rattus norvegicus [18] = test: Anti-hyperuricemic activity against potassium oxonate-induced hyperuricemic Sprague-Dawley rat model assessed as urinary creatinine level at 2 mg/kg, po pre-administered via gavage twice daily for 5 times followed by potassium oxonate injection for 1 hrs prior to last dose and measured after 3 hrs; assay type: functional; details: time 123 hrs
Rattus norvegicus [19] = test: Anti-hyperuricemic activity against potassium oxonate-induced hyperuricemic Sprague-Dawley rat model assessed as urine volume at 4 mg/kg, po pre-administered via gavage twice daily for 5 times followed by potassium oxonate injection for 1 hrs prior to last dose and measured after 3 hrs; assay type: functional; details: time 123 hrs
Rattus norvegicus [20] = test: Anti-hyperuricemic activity against potassium oxonate-induced hyperuricemic Sprague-Dawley rat model assessed as serum urate level at 1 mg/kg, po pre-administered via gavage twice daily for 5 times followed by potassium oxonate injection for 1 hrs prior to last dose and measured after 3 hrs; assay type: functional; details: time 123 hrs
Rattus norvegicus [21] = test: Anti-hyperuricemic activity against potassium oxonate-induced hyperuricemic Sprague-Dawley rat model assessed as serum creatinine level at 4 mg/kg, po pre-administered via gavage twice daily for 5 times followed by potassium oxonate injection for 1 hrs prior to last dose and measured after 3 hrs; assay type: functional; details: time 123 hrs
Rattus norvegicus [22] = test: (§4) Anti-hyperuricemic activity against potassium oxonate-induced hyperuricemic Sprague-Dawley rat model assessed as urinary urate at 4 mg/kg, po pre-administered via gavage twice daily for 5 times followed by potassium oxonate injection for 1 hrs prior to last dose and measured after 3 hrs; assay type: functional; details: time 123 hrs
Mus musculus [23] = test: Hypouricemic activity in potassium oxonate-induced hyperuricemic Kunming mouse model assessed as decrease in serum uric acid level pre-administered intragastrically via gavage twice daily for 5 times followed by potassium oxonate injection for 1 hrs prior to last dose by phosphotungstic acid method; assay type: functional, organism-based; details: dose 1-4 mg/kg, time 5.0 day
Rattus norvegicus [24] = test: as §4, with “glomerular load of” for “urinary”, “urate measured per body surface area of 0.0311 m2” for “urate”; assay type: functional; details: time 123 hrs
Rattus norvegicus [25] = test: Anti-hyperuricemic activity against potassium oxonate-induced hyperuricemic Sprague-Dawley rat model assessed as serum urate level at 4 mg/kg, po pre-administered via gavage twice daily for 5 times followed by potassium oxonate injection for 1 hrs prior to last dose and measured after 3 hrs; assay type: functional; details: time 123 hrs
Rattus norvegicus [26] = test: Anti-hyperuricemic activity against potassium oxonate-induced hyperuricemic Sprague-Dawley rat model assessed as serum creatinine level at 1 mg/kg, po pre-administered via gavage twice daily for 5 times followed by potassium oxonate injection for 1 hrs prior to last dose and measured after 3 hrs; assay type: functional; details: time 123 hrs
Rattus norvegicus [27] = test: Anti-hyperuricemic activity against potassium oxonate-induced hyperuricemic Sprague-Dawley rat model assessed as urine volume at 1 mg/kg, po pre-administered via gavage twice daily for 5 times followed by potassium oxonate injection for 1 hrs prior to last dose and measured after 3 hrs; assay type: functional; details: time 123 hrs
Rattus norvegicus [28] = test: Anti-hyperuricemic activity against potassium oxonate-induced hyperuricemic Sprague-Dawley rat model assessed as urinary urate level at 4 mg/kg, po pre-administered via gavage twice daily for 5 times followed by potassium oxonate injection for 1 hrs prior to last dose and measured after 3 hrs; assay type: functional; details: time 123 hrs
Rattus norvegicus [29] = test: as §3, with “glomerular load of” for “urinary”, “measured per body surface area of 0.0311 m2” for “level”; assay type: functional; details: time 123 hrs
Rattus norvegicus [30] = test: as §2, with “1” for “4”; assay type: functional; details: time 123 hrs
Rattus norvegicus [31] = test: Anti-hyperuricemic activity against potassium oxonate-induced hyperuricemic Sprague-Dawley rat model assessed as serum urea nitrogen level at 2 mg/kg, po pre-administered via gavage twice daily for 5 times followed by potassium oxonate injection for 1 hrs prior to last dose and measured after 3 hrs; assay type: functional; details: time 123 hrs

Work on `COc1c(O)cc2oc3cc(O)c(CC=C(C)C)c(O)c3c(=O)c2c1CC=C(C)C` [MANGOSTIN] yielded an Activity (Rattus norvegicus [1]) of 0.9 mmol/L, an Activity (Rattus norvegicus [2]) of 4.4 µmol/min and an Activity (Rattus norvegicus [3]) of 85%. For the same molecule, the Activity (Mus musculus [4]) was “Tde”, the Activity (Rattus norvegicus [5]) was 77% and the Activity [6] was “Non-Toxic”. The Activity [7] was “Non-Toxic”, the Activity (Rattus norvegicus [8]) was 55.2 µmol/L and the Activity (Rattus norvegicus [9]) was 46%. For the same molecule, the Activity (Mus musculus [10]) was “inactive”, the inhibition (Homo sapiens [11]) was 1.4% and the inhibition (Homo sapiens [12]) was 6.3%. The Activity (Rattus norvegicus [13]) was 13.6 mL/min, the inhibition (Homo sapiens [14]) was 2.6% and the Ratio (Rattus norvegicus [15]) was 2.9. The Activity (Rattus norvegicus [16]) was 21.4 mL/min, the Activity (Rattus norvegicus [17]) was 2.6 mmol/L and the Activity (Rattus norvegicus [18]) was 0.8 mmol/L. It also gave an Activity (Rattus norvegicus [19]) of 6.2 mL, an Activity (Rattus norvegicus [20]) of 220 µmol/L and an Activity (Rattus norvegicus [21]) of 55 µmol/L. The Activity (Rattus norvegicus [22]) was 476 µmol, the Activity (Mus musculus [23]) was “Dose-Dependent Effect” and the Activity (Rattus norvegicus [24]) was 3.7 µmol/min. It also gave an Activity (Rattus norvegicus [25]) of 202 µmol/L, an Activity (Rattus norvegicus [26]) of 54.4 µmol/L and an Activity (Rattus norvegicus [27]) of 6.8 mL. It also gave an Activity (Rattus norvegicus [28]) of 2.4 mmol/L, an Activity (Rattus norvegicus [29]) of 3.6 µmol/min and an Activity (Rattus norvegicus [30]) of 71%. It also gave an Activity (Rattus norvegicus [31]) of 10.9 mmol/L.
